Assay results reported in PubChem BioAssay AID1626 (SRMLSC, 2009).
pIC50: −log10 of the molar value.

Tested on: M. tuberculosis H37Rv growth inhibition
Experiment: M. tuberculosis H37Rv growth inhibitors, H37Rv strain (AID 1626)
Settings: for IC90: measured here: IC90 against H37Rv; for CC50: measured here: Vero cell cytotoxicity

SMILES	pIC50	IC90 [µM]	CC50 [µM]
COc1cc(CN2CCCC(C(=O)c3ccccc3SC)C2)cc(OC)c1 (stereo not given)	4.64	25.9	> 40
N#Cc1ccc(-c2ccccc2)nc1SCC(=O)c1cc2ccccc2oc1=O	5.78	2.16	> 40
N#C/C(=C(/O)COC(=O)CCC1CCCCC1)c1nc2ccccc2[nH]1	4.69	25.1	> 40
Cc1ccc(Cc2cnc(NC(=O)c3cccs3)s2)cc1	5.23	6.69	> 40
O=C(CNC(=O)/C(=C/c1ccccc1)NC(=O)c1ccc(Br)cc1)OCc1ccccc1	5.39	6.63	15.3
Cn1c(O)c(C(=Nc2ccccc2)SCc2ccc(Cl)cc2)c(=O)n(C)c1=O	5.25	6.41	21.2
CCOC(=O)c1ccc(NC(=O)c2n[nH]c(=O)c3ccccc23)cc1		> 100	
O=C(Nc1nc2ccccc2[nH]1)c1cc2ccccc2o1	4.43	> 100	> 40
c1ccc(-c2nc(N3CCOCC3)c3ccccc3n2)nc1	5.28	14.5	> 40
COc1cc(CNC(C)c2ccccc2)cc(Cl)c1OCC(=O)Nc1ccccc1 (stereo not given)	5.51	3.39	> 40
c1cnc2c(c1)ccc1cccnc12	5.35	8.17	3.98
CC(C)=CCN1CCN(CCC2=C(C)CCCC2(C)C)CC1CCO (stereo not given)	5.23	6.66	
Cc1cccc(NC(=O)c2ccc([N+](=O)[O-])o2)c1C	4.91	23.9	11.5
Cc1nn(-c2ccccc2)c(Cl)c1/C=N/O		> 100	
Cc1ccc(OCCC(=O)Nc2ccc(C)c(F)c2)cc1		> 100	
Cc1c(CNC(=O)c2cnn3c2NC(c2ccc(Br)cc2)CC3C(F)(F)F)cnn1C (stereo not given)	5.39	6.49	
CCn1c(=O)c(C(=O)Nc2nc3ccccc3[nH]2)c(O)c2ccccc21	6.41	0.423	> 40
Cc1ccc(-c2c[n+](CC(=O)Nc3nc(-c4ccc(F)cc4)cs3)c3n2CCC3)cc1	5.31	7.09	
O=c1[nH]c(-c2ccccn2)nc2sc(-c3ccccc3)cc12	> 6.41	0.553	2.2
OC(COCC(F)(F)C(F)(F)C(F)(F)C(F)F)Cn1c2ccc(Cl)cc2c2cc(Cl)ccc21 (stereo not given)	5.15	9.92	13.3

SMILES	pIC50	IC90 [µM]	CC50 [µM]
COc1cc(/C=C/c2ccc3c(Br)cc(Br)c(O)c3n2)ccc1O	> 6.71	0.345	14.5
Cc1ccccc1-c1cc(C(=O)Nc2nc3c(s2)CCCC3)c2ccccc2n1	5.36	12.7	> 40
O=C(/C=C/c1ccc(OCCCF)cc1)Nc1ccnc(-c2ccncc2)n1	4.08	> 100	> 40
COc1cc(N=C2C(=O)N3c4c(cccc42)C(C)=CC3(C)C)cc(OC)c1	4.33	> 100	
CN(Cc1nc2ccccc2c(=O)[nH]1)Cc1nc2ccsc2c(=O)[nH]1	5.71	4.36	
Oc1ccccc1-c1nc(/C=C/c2ccccc2)nn1-c1ccccc1	4.79	> 100	
Cc1cc(NC(=O)c2ccccc2)n(-c2nc3ccccc3[nH]2)n1	4.22	> 100	27.9
CCOC(=O)CSc1ncnc2c1cnn2-c1ccc(C)cc1	5.00	22.5	
O=C(CCSc1ccccc1)Nc1nnc(-c2ccccc2)o1		> 100	
CCCCCc1cc(=O)oc2c(C(CCN3CCCC(C)C3)c3cc(OC)c(OC)c(OC)c3)c(OC)cc(OC)c12 (stereo not given)	5.12	9.84	14.5
CC(=O)CC(=O)Nc1ccc2ccccc2c1	4.87	> 100	
CCOc1ccc(N=CC2=C(O)CC(C)(C)CC2=O)cc1		> 100	
O=c1c2ccccc2c(C=NC2CCN(Cc3ccccc3)CC2)c(O)n1Cc1ccc2c(c1)OCO2	5.20	12.2	> 40
CCC(=C(c1ccc(OC)cc1)c1ccc(OC)cc1)c1cn(CC(O)CN(CCO)CCO)c2ccccc12 (stereo not given)	4.90	13.6	26.5
COc1cc(-c2ccc3oc(-c4ccsc4)c(C#CC4(O)CCCCC4)c3c2)cc(OC)c1OC	5.42	> 100	> 40
CCOC(=O)c1ccc(NC(=O)Oc2cc(C)c(Cl)cc2C(C)C)cc1	4.94	> 100	
Cc1ccc(CNc2nc(-c3cccs3)nc3ccccc23)cc1	5.01	18.7	> 40
Oc1cc(-c2ccccc2)c2ccccc2c1	4.57	> 100	> 40
O=C(Nc1nnc(SCc2ccc(F)cc2)s1)c1ccccn1	6.47	5.05	4.74
CC(C)Cc1cc(C(=O)Nc2c(F)cc(F)cc2Br)no1	5.18	10.5	
